The source of these data is patent US8298991B2, “Method for controlling undesired mimosoideae vegetation” (E I du Pont de Nemours and Company, priority 2008, dated 2012).

Assay [1] relates to huisache (Acacia farnesiana). The assay can be described thus: Test A: field study, control of a natural stand of huisache. The note with it: for % Defoliation 62 DAA: 62 days after application, vs control plot, foliar spray with 1% methylated seed oil, g ai/ha: Compound 1 250, fosamine-ammonium 6688, imazapyr (a.e.) 280, metsulfuron-methyl 42, alone or combined; for % Control 229 DAA: 229 days after application; for % Control 229 DAA / % Control 543 DAA / % Control 656 DAA / % Control 745 DAA: % of trees with no green foliage or regrowth, g ai/ha: Compound 1 250, fosamine-ammonium 6688, imazapyr 280, metsulfuron-methyl 42; for % Control 543 DAA: 543 days after application; for % Control 656 DAA: 656 days after application; for % Control 745 DAA: 745 days after application. The format is in vivo. Here is the method:
A field study was conducted to evaluate the efficacy of 250 g/ha of Compound 1, 6.7 kg/ha of fosamine-ammonium (i.e. ammonium salt of fosamine), 280 g/ha of imazapyr (provided in the form of the isopropylammonium salt of imazapyr) and 42 g/ha of metsulfuron-methyl, separately and in combination, for controlling a natural stand of huisache (Acacia farnesiana) on a ranch in southeastern Texas. Compound 1 was in the form of a wettable granule formulation containing 80% by weight of Compound 1. Fosamine-ammonium was provided by KRENITE® S, which is a water-soluble liquid formulation containing 41.5% of fosamine-ammonium. Imazapyr was provided by ARSENAL®, which is a water-soluble liquid formulation containing 28.7% of imazapyr-isopropylammonium (equivalent to 22.6% of imazapyr, i.e. imazapyr acid equivalent). Metsulfuron-methyl was provided by ESCORT® XP, which is a wettable granule formulation containing 60% of metsulfuron-methyl.
The trial design was a large block, single replicate field study using rectangular test plots measuring 12.8 m by 22.9 m. The huisache trees in the test plots averaged 2.4 m tall and were estimated to be approximately 20 years old. The formulated herbicides were diluted with water and 1% by volume of methylated seed oil was added to provide about 27.4 L of spray mixture. The treatments were applied in early autumn using a high-volume handgun sprayer projecting the spray mixture upward and across a plot in a slow back and forth motion while traversing the plot lengthwise. This produced a rainfall-like spray covering both the huisache trees and ground between trees in the plots. The volume of spray mixture used (corresponding to 935 L/ha) was sufficient to thoroughly wet the foliage of the huisache trees with relatively little drip or run off under the trees.
The effects of the herbicide treatments were visually evaluated. At 62 days after application (DAA), the percentage of defoliation in comparison to a control plot was observed. Then at 229, 543, 656 and 745 days after application % control was calculated based on the percentage of trees showing no green foliage or regrowth.

Assay [2] concerns honey mesquite (Prosopis glandulosa). Description: Test B: field study, control of natural stands of honey mesquite. Type of assay: in vivo. The note with it: for % Control Site 1 Observed: Site 1, 12 months after application, 94 L/ha; for % Control Site 1 Observed / % Control Site 2 Observed: % dead trees, g ai/ha: Compound 1 125, triclopyr (a.e., as butotyl ester) 280; for % Control Site 2 Observed: Site 2, 10 months after application, 140 L/ha. As for the experimental part: A field study was conducted to evaluate the efficacy of 125 g/ha of Compound 1 and 280 g/ha of triclopyr (in the form of the butoxyethyl ester of triclopyr, i.e. triclopyr-butotyl), separately and in combination, for controlling natural stands of honey mesquite (Prosopis glandulosa) on ranches in western Texas. Compound 1 was in the form of an 80% wettable granule formulation. Triclopyr was provided by GARLON® 4 or REMEDY®, which are emulsifiable concentrate formulations containing 44.3% or 61.6% of triclopyr-butotyl, respectively.
The trial design was a large block, single replicate test. Each test used rectangular test plots measuring 3 m by 9 m and incorporating at least 10 mesquite plants per plot. The formulated herbicides were diluted with water, and 1% by volume of methylated seed oil was added, to provide volumes of spray mixtures corresponding to a rate of 94 L/ha at Site 1 and 140 L/ha at Site 2. The treatments were applied using flat fan nozzles on an elevated spray boom moved across the plots by an all-terrain vehicle or small tractor. The elevated spray boom and relatively low spray volumes simulated aerial (e.g., helicopter or fixed wing aircraft) applications.
In each plot 10 mesquite trees were identified with a metal tag for evaluation. The effects of the herbicide treatments were evaluated 12 months after application at Site 1 and 10 months after application at Site 2. Visual evaluations were used to rate the herbicidal effect of the various treatments. A tree was considered alive if any foliage was present within the tree canopy area or if any new growth (i.e. sprouts) emerged from the base of the tree.
Expected results were calculated using the Colby Equation. Colby's equation (S. R. Colby, “Calculating Synergistic and Antagonistic Responses of Herbicide Combinations,” Weeds, 15(1), pp 20-22 (1967)) calculates the expected additive effect of herbicidal mixtures, and for two active ingredients is of the form: Pa+b=Pa+Pb−(PaPb/100) wherein • Pa+b is the percentage effect of the mixture expected from additive contribution of the individual components, • Pa is the observed percentage effect of the first active ingredient at the same use rate as in the mixture, and • Pb is the observed percentage effect of the second active ingredient at the same use rate as in the mixture.

SMILES strings stand for the structures.

For the molecule `CC(C)C1(C)N=C(c2ncccc2C(=O)O)NC1=O` (racemic) [Imazapyr, (±)-2-[4,5-dihydro-4-methyl-4-(1-methylethyl)-5-oxo-1H-imidazol-2-yl]-3-pyridinecarboxylic acid], in assay [1], the “% Defoliation 62 DAA” value came out at 70%, the “% Control 229 DAA” value is recorded as 9%, the “% Control 543 DAA” value was 0% and the “% Control 656 DAA” value is recorded as 0%. Besides, the “% Control 745 DAA” value in assay [1] worked out at 0%.

In the case of `COC(=O)c1nc(C2CC2)nc(N)c1Cl` [Compound 1, methyl 6-amino-5-chloro-2-cyclopropyl-4-pyrimidine-carboxylate], in assay [1], the “% Defoliation 62 DAA” value turned out to be 100%, the “% Control 229 DAA” value was found to be 91% and the “% Control 745 DAA” value was 33%. In addition, in assay [2], the “% Control Site 1 Observed” value is 60% and the “% Control Site 2 Observed” value was determined as 60%. The “long-term control of honey mesquite (text summary over Sites 1 and 2)” value in assay [2] (both sites, Compound 1 125 g/ha, triclopyr 280 g/ha) was 60%.

Turning to `CCOP(=O)(O)C(N)=O` [Fosamine, ethyl hydrogen (aminocarbonyl)phosphonate], in assay [1], the “% Defoliation 62 DAA” value came to 75%, the “% Control 229 DAA” value turned out to be 0%, the “% Control 543 DAA” value came to 0% and the “% Control 656 DAA” value was 0%. Further, in assay [1], the “% Control 745 DAA” value was 0%.

For `COC(=O)c1ccccc1S(=O)(=O)NC(=O)Nc1nc(C)nc(OC)n1` [Metsulfuron-methyl, methyl 2-[[[[(4-methoxy-6-methyl-1,3,5-triazin-2-yl)amino]carbonyl]amino]sulfonyl]benzoate], in assay [1], the “% Defoliation 62 DAA” value was determined as 85%, the “% Control 229 DAA” value was 11%, the “% Control 543 DAA” value was found to be 0% and the “% Control 656 DAA” value is 0%. For the same molecule, the “% Control 745 DAA” value in assay [1] is 0%.

Regarding `O=C(O)COc1nc(Cl)c(Cl)cc1Cl` [Triclopyr, [(3,5,6-trichloro-2-pyridyl)oxy]acetic acid], in assay [2], the “% Control Site 1 Observed” value turned out to be 0% and the “% Control Site 2 Observed” value was found to be 30%.
